Data: patent publication US20240092835A1, “NOVEL PEPTIDES CAPABLE OF ALTERING NK CELL ACTIVITY” (Massachusetts Institute of Technology, priority 2022, published 2024)
Where no end group is shown, it is not given here.

Tests used:
CD94/NKG2C = CD94/NKG2C (Homo sapiens, UniProt P26717+Q13241); assay: Steady-state surface plasmon resonance of peptide-HLA-E complex with CD94/NKG2C; assay type: binding; conditions: for Binding of peptide-HLA-E complexes to CD94/NKG2C normalized to a theoretical Rmax: steady-state SPR
Chain of CD94/NKG2C (P26717 94-231 limits assumed): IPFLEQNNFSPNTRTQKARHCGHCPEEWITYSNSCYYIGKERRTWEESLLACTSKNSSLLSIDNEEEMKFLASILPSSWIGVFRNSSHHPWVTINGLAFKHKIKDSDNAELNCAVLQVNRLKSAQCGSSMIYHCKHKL
Chain of CD94/NKG2C (Q13241 32-179 limits assumed): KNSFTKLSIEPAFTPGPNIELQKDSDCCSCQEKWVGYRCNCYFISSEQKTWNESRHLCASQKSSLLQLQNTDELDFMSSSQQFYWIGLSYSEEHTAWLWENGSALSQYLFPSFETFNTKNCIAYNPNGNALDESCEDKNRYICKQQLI
Method: (§1) Binding affinity of novel peptides linked to HLA-E was determined using surface plasmon resonance (SPR), a methodology used to study protein-protein interactions (Tables 15-19). The peptide-HLA-E complex (generated as a single chain trimer) was immobilized on the sensor chip surface and CD94/NKG2A or CD94/NKG2C were flowed over. Steady-state surface plasmon resonance experiments were performed with a Biacore T200 instrument. CD94/NKG2x in HBS-EP+ buffer was injected as analyte in a concentration range of 0.1 μM to 102.4 μM and flow rate of 10 μL/min at 25° C. Data was fit with Prism 9.4 (GraphPad Software Inc; San Diego CA) to a “one site, specific binding” model. Series S CM5 chips were coupled to neutravidin and utilized. Biotinylated pMHC was immobilized at approximately 400 RU. KD values calculated by Biacore software are reported. Rmax, fit values were calculated by Biacore software. Rmax, theoretical values were calculated using the analyte/ligand mass ratio (0.66) multiplied by the amount of ligand coupled to the chip.

CD94/NKG2A = CD94/NKG2A (Homo sapiens, UniProt P26715+Q13241); assay: Steady-state surface plasmon resonance of peptide-HLA-E complex with CD94/NKG2A; assay type: binding; conditions: for Binding of peptide-HLA-E complexes to CD94/NKG2A normalized to a theoretical Rmax: steady-state SPR
Chain of CD94/NKG2A (P26715 94-233 limits assumed): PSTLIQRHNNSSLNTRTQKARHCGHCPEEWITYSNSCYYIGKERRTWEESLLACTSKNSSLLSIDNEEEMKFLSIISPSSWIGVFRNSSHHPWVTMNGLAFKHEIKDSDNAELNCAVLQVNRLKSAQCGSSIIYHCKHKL
Chain of CD94/NKG2A (Q13241 32-179 limits assumed): as the sequence (Q13241 32-179 limits assumed) above
Method: as §1

## TAPARTMFL [human13, TAPARTMFL]
CD94/NKG2C; CD94/NKG2C concentration 0 μM
  binding of peptide-HLA-E complex to CD94/NKG2C normalized to a fitted Rmax: 0.007
CD94/NKG2C; CD94/NKG2C concentration 0.1 μM
  binding of peptide-HLA-E complex to CD94/NKG2C normalized to a fitted Rmax: 0.017
CD94/NKG2C; CD94/NKG2C concentration 0.2 μM
  binding of peptide-HLA-E complex to CD94/NKG2C normalized to a fitted Rmax: 0.023
CD94/NKG2C; CD94/NKG2C concentration 0.4 μM
  binding of peptide-HLA-E complex to CD94/NKG2C normalized to a fitted Rmax: 0.040
CD94/NKG2C; CD94/NKG2C concentration 0.8 μM
  binding of peptide-HLA-E complex to CD94/NKG2C normalized to a fitted Rmax: 0.067
CD94/NKG2C; CD94/NKG2C concentration 1.6 μM
  binding of peptide-HLA-E complex to CD94/NKG2C normalized to a fitted Rmax: 0.117
CD94/NKG2C; CD94/NKG2C concentration 3.2 μM
  binding of peptide-HLA-E complex to CD94/NKG2C normalized to a fitted Rmax: 0.202
CD94/NKG2C; CD94/NKG2C concentration 6.4 μM
  binding of peptide-HLA-E complex to CD94/NKG2C normalized to a fitted Rmax: 0.317
CD94/NKG2C; CD94/NKG2C concentration 12.8 μM
  binding of peptide-HLA-E complex to CD94/NKG2C normalized to a fitted Rmax: 0.462
CD94/NKG2C; CD94/NKG2C concentration 25.6 μM
  binding of peptide-HLA-E complex to CD94/NKG2C normalized to a fitted Rmax: 0.613
CD94/NKG2C; CD94/NKG2C concentration 51.2 μM
  binding of peptide-HLA-E complex to CD94/NKG2C normalized to a fitted Rmax: 0.746
CD94/NKG2C; CD94/NKG2C concentration 102.4 μM
  binding of peptide-HLA-E complex to CD94/NKG2C normalized to a fitted Rmax: 0.904
CD94/NKG2C; CD94/NKG2C analyte concentration 0 μM
  Binding of peptide-HLA-E complexes to CD94/NKG2C normalized to a theoretical Rmax: 0.005
CD94/NKG2C; CD94/NKG2C analyte concentration 0.1 μM
  Binding of peptide-HLA-E complexes to CD94/NKG2C normalized to a theoretical Rmax: 0.012
CD94/NKG2C; CD94/NKG2C analyte concentration 0.2 μM
  Binding of peptide-HLA-E complexes to CD94/NKG2C normalized to a theoretical Rmax: 0.017
CD94/NKG2C; CD94/NKG2C analyte concentration 0.4 μM
  Binding of peptide-HLA-E complexes to CD94/NKG2C normalized to a theoretical Rmax: 0.030
CD94/NKG2C; CD94/NKG2C analyte concentration 0.8 μM
  Binding of peptide-HLA-E complexes to CD94/NKG2C normalized to a theoretical Rmax: 0.050
CD94/NKG2C; CD94/NKG2C analyte concentration 1.6 μM
  Binding of peptide-HLA-E complexes to CD94/NKG2C normalized to a theoretical Rmax: 0.086
CD94/NKG2C; CD94/NKG2C analyte concentration 3.2 μM
  Binding of peptide-HLA-E complexes to CD94/NKG2C normalized to a theoretical Rmax: 0.149
CD94/NKG2C; CD94/NKG2C analyte concentration 6.4 μM
  Binding of peptide-HLA-E complexes to CD94/NKG2C normalized to a theoretical Rmax: 0.234
CD94/NKG2C; CD94/NKG2C analyte concentration 12.8 μM
  Binding of peptide-HLA-E complexes to CD94/NKG2C normalized to a theoretical Rmax: 0.342
CD94/NKG2C; CD94/NKG2C analyte concentration 25.6 μM
  Binding of peptide-HLA-E complexes to CD94/NKG2C normalized to a theoretical Rmax: 0.454
CD94/NKG2C; CD94/NKG2C analyte concentration 51.2 μM
  Binding of peptide-HLA-E complexes to CD94/NKG2C normalized to a theoretical Rmax: 0.552
CD94/NKG2C; CD94/NKG2C analyte concentration 102.4 μM
  Binding of peptide-HLA-E complexes to CD94/NKG2C normalized to a theoretical Rmax: 0.669
CD94/NKG2A; CD94/NKG2A concentration 0 μM
  binding of peptide-HLA-E complex to CD94/NKG2A normalized to a fitted Rmax: 0.010
CD94/NKG2A; CD94/NKG2A concentration 0.1 μM
  binding of peptide-HLA-E complex to CD94/NKG2A normalized to a fitted Rmax: 0.024
CD94/NKG2A; CD94/NKG2A concentration 0.2 μM
  binding of peptide-HLA-E complex to CD94/NKG2A normalized to a fitted Rmax: 0.037
CD94/NKG2A; CD94/NKG2A concentration 0.4 μM
  binding of peptide-HLA-E complex to CD94/NKG2A normalized to a fitted Rmax: 0.066
CD94/NKG2A; CD94/NKG2A concentration 0.8 μM
  binding of peptide-HLA-E complex to CD94/NKG2A normalized to a fitted Rmax: 0.115
CD94/NKG2A; CD94/NKG2A concentration 1.6 μM
  binding of peptide-HLA-E complex to CD94/NKG2A normalized to a fitted Rmax: 0.191
CD94/NKG2A; CD94/NKG2A concentration 3.2 μM
  binding of peptide-HLA-E complex to CD94/NKG2A normalized to a fitted Rmax: 0.302
CD94/NKG2A; CD94/NKG2A concentration 6.4 μM
  binding of peptide-HLA-E complex to CD94/NKG2A normalized to a fitted Rmax: 0.432
CD94/NKG2A; CD94/NKG2A concentration 12.8 μM
  binding of peptide-HLA-E complex to CD94/NKG2A normalized to a fitted Rmax: 0.558
CD94/NKG2A; CD94/NKG2A concentration 25.6 μM
  binding of peptide-HLA-E complex to CD94/NKG2A normalized to a fitted Rmax: 0.685
CD94/NKG2A; CD94/NKG2A concentration 51.2 μM
  binding of peptide-HLA-E complex to CD94/NKG2A normalized to a fitted Rmax: 0.819
CD94/NKG2A; CD94/NKG2A concentration 102.4 μM
  binding of peptide-HLA-E complex to CD94/NKG2A normalized to a fitted Rmax: 0.961
CD94/NKG2A; CD94/NKG2A analyte concentration 0.000 μM
  Binding of peptide-HLA-E complexes to CD94/NKG2A normalized to a theoretical Rmax: 0.006
CD94/NKG2A; CD94/NKG2A analyte concentration 0.100 μM
  Binding of peptide-HLA-E complexes to CD94/NKG2A normalized to a theoretical Rmax: 0.015
CD94/NKG2A; CD94/NKG2A analyte concentration 0.200 μM
  Binding of peptide-HLA-E complexes to CD94/NKG2A normalized to a theoretical Rmax: 0.023
CD94/NKG2A; CD94/NKG2A analyte concentration 0.400 μM
  Binding of peptide-HLA-E complexes to CD94/NKG2A normalized to a theoretical Rmax: 0.042
CD94/NKG2A; CD94/NKG2A analyte concentration 0.800 μM
  Binding of peptide-HLA-E complexes to CD94/NKG2A normalized to a theoretical Rmax: 0.074
CD94/NKG2A; CD94/NKG2A analyte concentration 1.600 μM
  Binding of peptide-HLA-E complexes to CD94/NKG2A normalized to a theoretical Rmax: 0.122
CD94/NKG2A; CD94/NKG2A analyte concentration 3.200 μM
  Binding of peptide-HLA-E complexes to CD94/NKG2A normalized to a theoretical Rmax: 0.193
CD94/NKG2A; CD94/NKG2A analyte concentration 6.400 μM
  Binding of peptide-HLA-E complexes to CD94/NKG2A normalized to a theoretical Rmax: 0.277
CD94/NKG2A; CD94/NKG2A analyte concentration 12.800 μM
  Binding of peptide-HLA-E complexes to CD94/NKG2A normalized to a theoretical Rmax: 0.357
CD94/NKG2A; CD94/NKG2A analyte concentration 25.600 μM
  Binding of peptide-HLA-E complexes to CD94/NKG2A normalized to a theoretical Rmax: 0.439
CD94/NKG2A; CD94/NKG2A analyte concentration 51.200 μM
  Binding of peptide-HLA-E complexes to CD94/NKG2A normalized to a theoretical Rmax: 0.524
CD94/NKG2A; CD94/NKG2A analyte concentration 102.400 μM
  Binding of peptide-HLA-E complexes to CD94/NKG2A normalized to a theoretical Rmax: 0.615
